In patent publication US20210308034A1, “PREBIOTIC COMPOSITIONS AND METHODS FOR MAINTAINING A HEALTHY SKIN MICROBIOTA” (KIMBERLY-CLARK WORLDWIDE, INC., priority 2018, published 2021):

Tests used:
Assay type in all cases: cell-based
[1] = tested on: Pseudomonas aeruginosa (ATCC 9027); details: Pathogenic; carbon microarray plate, OD 600 nm, 36 hr, 33° C.; positive = more than 0.05 OD units above zero; blank cell = not utilized
How it was run: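 Carbon-source utilisation screen on Biolog PM1/PM2 plates: strain grown in TSB then on M9*2 agar, each ~24 h at 37 °C, washed four times in M9*1 and diluted tenfold. OD600 correlated to CFU/mL; each carbohydrate scored Yes when utilised.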

[2] = tested on: Staphylococcus epidermidis (ATCC 14990); experiment: Carbohydrate Screening Test Method (Biolog phenotype microarray), Bacteria Code I; details: Commensal; carbon microarray plate, OD 600 nm, 36 hr, 33° C.; positive = more than 0.05 OD units above zero; blank cell = not utilized
Source text: (§1) After creating desired ratios of various commensal skin bacteria in a healthy skin microbiome, 188 different carbohydrate sources were screened as the next step in determining potential prospects for skin microbiota balancing agents. The screening process was set up to determine which carbohydrate sources promoted commensal and/or pathogenic bacteria as well as to obtain individual and combinations of carbohydrate sources that could serve as microbiota balancing agents that can support or maintain the healthy proportions of commensal skin bacteria of Corynebacterium, Staphylococcus, and Micrococcus. The screening was conducted utilizing Biolog phenotype microarray plates (Hayward, Calif.). Table 1 provides a coded list of the commensal and pathogenic skin bacteria that the carbohydrates were screened against.
(§2) Table 2 provides the results of screening various carbohydrate sources against the commensal and pathogenic bacteria codes listed in Table 1. The Bacteria Codes B, D, E, I, and J are commensal bacteria and are shaded in Table 2 for references purposes. The bacteria codes were each placed in a carbon microarray plate and screened through the Carbohydrate Screening Test Method, as described in the Test Methods section herein. If a particular bacteria code utilized a specific carbohydrate source as described in the Carbohydrate Screening Test Method, then the corresponding cell in Table 2 was marked with a Y (short for “Yes”). […] Many of the carbohydrate sources were utilized by both commensal and pathogenic bacteria, and as such, would not provide an advantage for selective growth of the commensal bacteria. However, some of the carbohydrate sources were only used by commensal bacteria and were identified for further testing as described herein.
(§3) The study employed 10 representative skin bacteria; Staphylococcus epidermidis ATCC 14990, Staphylococcus epidermidis M23864:W2, Staphylococcus aureus ATCC 6538, Staphylococcus aureus ATCC 25904 (Newman), Pseudomonas aeruginosa ATCC 9027, Micrococcus luteus ATCC […], Micrococcus luteus SK58, Klebsiella pneumoniae ATCC BAA-2146, Corynebacterium amycolatum SK46, and Corynebacterium minutissimum ATCC 23348. Cultures were started from freezer bead stocks by placing a single bead into 20 mL of tryptic soy broth (TSB) for all organisms except C. amycolatum SK46 and C. minutissimum ATCC 23348, which were placed into brain heart infusion (BHI) broth. Cultures were grown for about 24 hr at 37° C. except M. luteus ATCC 49732 and M. luteus SK58, which were grown at 30° C. A passage of the culture was made using a sterile swab and streaked onto two M9*2 agar plates to prepare the incubated culture for the phenotype microarray pate according to Table 4. Plates were incubated for about 24 hr at 37° C. except for M. luteus ATCC 49732 and M. luteus SK58, which were incubated at 30° C. for 24 hr.
(§4) All cultures were harvested and washed before inoculation into the carbon microarray plate (BiOLOG, Hayward Calif.), with Biolog Plates PM1 and PM2 each having a source definition of Carbon. The bacteria on the M9*2 agar was suspended via agitation with an inoculating loop in 1 mL of M9*1 media for collection in a 1.7 mL micro centrifuge tube, as noted in Table 4. The bacteria was suspended again in M9*1 media, agitated, and collected into the same 1.7 mL microcentrifuge tube used in the previous step. The tube was centrifuged for 5 minutes at 4,000×G, supernatant decanted, the pellet was resuspended in 1 mL of M9*1 media, and vortex. This washing process was repeated for a total of 4 times.
(§5) A tenfold dilution in M9*1 media was performed using 1 mL of the washed bacterial culture. Of the tenfold dilution 200 μL was placed in an untreated 96-well plate (Falcon, Pasadena Tx.) for an initial optical density (OD) reading at a wavelength of 600 nm. The OD was used to correlate to colony forming units (CFU) per milliliter by using linear regression lines for each organism. […]

[3] = tested on: Staphylococcus epidermidis (M23864:W2); experiment: Carbohydrate Screening Test Method (Biolog phenotype microarray), Bacteria Code J; details: Commensal; carbon microarray plate, OD 600 nm, 36 hr, 33° C.; positive = more than 0.05 OD units above zero; blank cell = not utilized
Source text: as §1
The Bacteria Codes B, D, E, I, and J are commensal bacteria and are shaded in Table 2 for references purposes. The bacteria codes were each placed in a carbon microarray plate and screened through the Carbohydrate Screening Test Method, as described in the Test Methods section herein. If a particular bacteria code utilized a specific carbohydrate source as described in the Carbohydrate Screening Test Method, then the corresponding cell in Table 2 was marked with a Y (short for “Yes”).
To do so, the respective microarray data for the 79 carbohydrate sources was run through the GrowthRates 2.1 program to obtain growth parameters, such as growth rates and maximum yield data as described by the Belingham Research Institute, Hall, B. G., H. Acar and M. Barlow. 2014 Growth Rates Made Easy. Mol. Biol. Evol. 31:232-238 doi:10.1093/molbev/mst197. The max yield parameters generated were utilized to calculate ratios of tested commensal bacteria. The ratios calculated were compared back to the desired ratios identified above (Corynebacterium to Staphylococcus of 1.3, Corynebacterium to Micrococcus of 1.4, and Staphylococcus to Micrococcus of 1.1).
As an example of this methodology used to calculate the commensal bacteria ratios and the difference between the calculated ratios and the desired ratios, an example code from Table 3 will be described. […] The max yields were then used to calculate ratios the bacteria would reach in a co-culture.

[4] = tested on: Klebsiella pneumoniae (ATCC BAA-2146); details: Pathogenic; carbon microarray plate, OD 600 nm, 36 hr, 33° C.; positive = more than 0.05 OD units above zero; blank cell = not utilized
[5] = tested on: Micrococcus luteus (ATCC 49732); experiment: Carbohydrate Screening Test Method (Biolog phenotype microarray), Bacteria Code D; details: Commensal; carbon microarray plate, OD 600 nm, 36 hr, 33° C.; positive = more than 0.05 OD units above zero; blank cell = not utilized
Source text: as §1, §2, §3, §4, §5

[6] = tested on: Corynebacterium minutissimum (ATCC 23348); experiment: Carbohydrate Screening Test Method (Biolog phenotype microarray), Bacteria Code A; details: Pathogenic; carbon microarray plate, OD 600 nm, 36 hr, 33° C.; positive = more than 0.05 OD units above zero; blank cell = not utilized
Source text: as §1, §2, §3, §4, §5

[7] = tested on: Micrococcus luteus (SK58); experiment: Carbohydrate Screening Test Method (Biolog phenotype microarray), Bacteria Code E; details: Commensal; carbon microarray plate, OD 600 nm, 36 hr, 33° C.; positive = more than 0.05 OD units above zero; blank cell = not utilized
How it was run: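 Each commensal strain grown in Biolog carbon phenotype microarray plates with single carbohydrate sources. Growth curves fitted with GrowthRates 2.1 to give growth rate and maximum yield. Max yields used to calculate predicted co-culture ratios between Corynebacterium, Staphylococcus and Micrococcus, compared with desired ratios of 1.3, 1.4 and 1.1.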

[8] = tested on: Corynebacterium jeikum (ATCC 33033); experiment: Carbohydrate Screening Test Method (Biolog phenotype microarray), Bacteria Code B; details: Commensal; carbon microarray plate, OD 600 nm, 36 hr, 33° C.; positive = more than 0.05 OD units above zero; blank cell = not utilized
How it was run: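 Strain from M9*2 agar was suspended in M9*1 medium, washed and inoculated into Biolog PM1/PM2 carbon plates. Carbohydrate use was scored yes/no, and growth rate and maximum yield were derived with GrowthRates 2.1, with max yields used for commensal ratios.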

Structure (SMILES) | Carbohydrate Screening Results, Bacteria Code F [1] | Carbohydrate Screening Results, Bacteria Code C [4] | Carbohydrate Screening Results, Bacteria Code D [5] | further results
OC[C@H]1O[C@H](OC[C@H]2OC(O)(CO)[C@@H](O)[C@@H]2O)[C@H](O)[C@@H](O)[C@@H]1O (stereo partly drawn) [Palatinose] | Y | Y |  | Carbohydrate Screening Results, Bacteria Code I [2]: Y; Carbohydrate Screening Results, Bacteria Code J [3]: Y
C/C(=C/C(=O)O)C(=O)O [Citraconic Acid] |  |  | Y | Carbohydrate Screening Results, Bacteria Code I [2]: Y; Carbohydrate Screening Results, Bacteria Code J [3]: Y
CC(C)C[C@H](N)C(=O)O [L-Leucine] |  |  | Y | 
CC(N)=O [Acetamide] |  |  |  | Carbohydrate Screening Results, Bacteria Code A [6]: Y
O=C(O)c1ccc(O)cc1 [4-Hydroxy Benzoic Acid] |  |  | Y | 
N#C[C@H](O[C@@H]1O[C@H](CO[C@@H]2O[C@H](CO)[C@@H](O)[C@H](O)[C@H]2O)[C@@H](O)[C@H](O)[C@H]1O)c1ccccc1 [Amygdalin] |  |  | Y | Carbohydrate Screening Results, Bacteria Code J [3]: Y
OC[C@H]1O[C@H](OC[C@H]2O[C@H](OC[C@H]3O[C@H](O[C@]4(CO)O[C@H](CO)[C@@H](O)[C@@H]4O)[C@H](O)[C@@H](O)[C@@H]3O)[C@H](O)[C@@H](O)[C@H]2O)[C@H](O)[C@@H](O)[C@H]1O [Stachyose] | Y | Y | Y | 
OCc1ccccc1O[C@@H]1O[C@H](CO)[C@@H](O)[C@H](O)[C@H]1O [Salicin] | Y | Y | Y | 
O=C(O)[C@@H](O)[C@@H](O)[C@H](O)[C@@H](O)C(=O)O [D-Saccharic Acid] |  |  |  | Carbohydrate Screening Results, Bacteria Code A [6]: Y
CC(=O)N[C@@H](CCC(=O)O)C(=O)O [N-Acetyl-L-Glutamic Acid] | Y |  | Y | 
CC(=O)N[C@H]1C(O)O[C@H](CO)[C@@H](O)[C@@H]1O (stereo partly drawn) [N-Acetyl-D-Glucosamine] |  |  |  | Carbohydrate Screening Results, Bacteria Code A [6]: Y; Carbohydrate Screening Results, Bacteria Code E [7]: Y; Carbohydrate Screening Results, Bacteria Code B [8]: Y
O=C(O)CCC(=O)O [Succinic Acid] |  |  |  | Carbohydrate Screening Results, Bacteria Code A [6]: Y
OC[C@H]1O[C@@](CO)(O[C@H]2O[C@H](CO)[C@@H](O)[C@H](O)[C@H]2O)[C@@H](O[C@H]2O[C@H](CO)[C@@H](O)[C@H](O)[C@H]2O)[C@@H]1O [D-Melezitose] |  |  | Y | Carbohydrate Screening Results, Bacteria Code I [2]: Y
O=C(O)CC(=O)O [Malonic Acid] | Y | Y | Y | 
O=C(CO)[C@@H](O)[C@H](O)[C@@H](O)CO [L-Sorbose] | Y | Y | Y | 
